The source of these data is PMC5920614 (ACS Central Science, 2018).

Assay [1] can be described thus: 31P NMR of peptide/lipid II mixtures. Conditions: dimethyl sulfoxide. The assay is classed as binding.
The conditions of assay [2]: cited from earlier work.

Ends that are not written are not given here.

For the sequence “ITSISLCTPGC (also: bicyclic or more (positions not given here)) [nisin A]”, the “direction of shift of the new 31P NMR resonances (in words)” value in assay [1] (lipid II mixed with peptide) is recorded as “both new resonances arising in the nisin/lipid II spectra were shifted upfield”. In assay [1] (two new 31P resonances), the “binding to lipid II by 31P NMR (in words)” value was “both compounds bind to lipid II”. Moreover, the “pyrophosphate 31P peak shift upon nisin binding (in words)” value in assay [2] (31P NMR, dimethyl sulfoxide) is recorded as “the pyrophosphate peaks shift upfield upon nisin binding”. The “binding to lipid II (in words)” value in assay [2] is listed as “binds to the small molecular weight metabolite lipid II”.
